The source made the active and inactive calls. No cut-off for these calls is given here.

One series has as its target Histone deacetylase 3 (Homo sapiens, UniProt O15379). Description: Inhibition of HDAC3 (unknown origin) at 1 uM incubated for 30 mins by fluorometric analysis.
The subject of series [1] is Mus musculus. Nature of the series: Anti-pulmonary fibrosis activity in bleomycin-induced idiopathic pulmonary fibrosis C57BL/6J mouse model assessed as decrease in collagen I protein expression in lung at 25 mg/kg, ig administered daily via gavage measured after 14 days by western blot analysis. Format: functional, organism-based. To be noted: time 14.0 day. A general note: In western blotting, separated proteins are transferred to a membrane and probed.

The nature of series [2]: Toxicity against bleomycin-induced pulmonary fibrosis C57BL/6J mouse model assessed as increase AST index in serum at 50 mg/kg, ig administered daily via gavage and measured on day 14. Format: organism-based. To be noted: in vivo, po, 336 h, time 14 day.
The subject of a further series is NIH3T3. Description: Antiproliferative activity against mouse NIH/3T3 cells assessed as inhibition of cell growth incubated for 24 to 48 hrs by CCK8 assay. The series is classed as functional, cell-based. For orientation: Tetrazolium dyes change colour on reduction, which living cells bring about.
Series [3] deals with RPMI-8226. Description: Antiproliferative activity against human RPMI-8226 cells assessed as inhibition of cell growth incubated for 24 to 48 hrs by CCK8 assay. The series is classed as functional, cell-based.
A further series concerns the target Histone deacetylase 2 (Homo sapiens, UniProt Q92769). Description: Inhibition of HDAC2 (unknown origin) incubated for 30 mins by fluorometric analysis.
Series [4] concerns the target T1, Protein deacetylase HDAC6 (Mus musculus) (UniProt Q9Z2V5).
T1 sequence (whole entry): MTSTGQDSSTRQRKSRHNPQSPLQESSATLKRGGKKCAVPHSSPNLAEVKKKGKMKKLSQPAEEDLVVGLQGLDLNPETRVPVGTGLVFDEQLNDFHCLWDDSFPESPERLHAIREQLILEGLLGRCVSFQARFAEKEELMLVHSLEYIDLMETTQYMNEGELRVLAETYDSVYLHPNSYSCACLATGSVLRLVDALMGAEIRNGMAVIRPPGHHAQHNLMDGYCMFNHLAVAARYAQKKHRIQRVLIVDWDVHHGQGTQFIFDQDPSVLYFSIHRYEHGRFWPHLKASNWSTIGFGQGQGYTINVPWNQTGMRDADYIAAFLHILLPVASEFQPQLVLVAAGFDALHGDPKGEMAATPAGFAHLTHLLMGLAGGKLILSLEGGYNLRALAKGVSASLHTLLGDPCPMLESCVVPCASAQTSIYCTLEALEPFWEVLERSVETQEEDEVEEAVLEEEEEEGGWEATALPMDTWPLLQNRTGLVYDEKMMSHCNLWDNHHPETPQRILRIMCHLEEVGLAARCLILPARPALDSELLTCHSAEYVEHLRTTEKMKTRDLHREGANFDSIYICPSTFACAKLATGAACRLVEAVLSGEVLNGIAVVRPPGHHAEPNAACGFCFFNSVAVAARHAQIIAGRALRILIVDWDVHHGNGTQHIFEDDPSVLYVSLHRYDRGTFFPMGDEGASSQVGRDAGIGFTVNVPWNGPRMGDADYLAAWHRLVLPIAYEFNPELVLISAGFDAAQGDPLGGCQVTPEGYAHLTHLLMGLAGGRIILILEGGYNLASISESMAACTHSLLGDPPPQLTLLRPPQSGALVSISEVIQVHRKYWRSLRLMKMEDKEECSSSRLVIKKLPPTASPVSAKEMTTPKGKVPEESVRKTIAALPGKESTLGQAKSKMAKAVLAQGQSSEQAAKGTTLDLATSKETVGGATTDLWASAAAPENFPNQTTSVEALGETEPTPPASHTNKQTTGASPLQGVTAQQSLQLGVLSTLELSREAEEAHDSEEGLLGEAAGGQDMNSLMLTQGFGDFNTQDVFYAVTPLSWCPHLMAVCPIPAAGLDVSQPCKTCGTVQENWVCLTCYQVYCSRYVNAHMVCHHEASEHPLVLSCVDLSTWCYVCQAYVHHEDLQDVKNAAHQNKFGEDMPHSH
Description: In vivo inhibition of HDAC6 in bleomycin-induced idiopathic pulmonary fibrosis C57BL/6J mouse model assessed as increase in acetylated alpha-tubulin level in lung at 50 mg/kg, ig administered via gavage and measured on day 14 by western blot analysis. To be noted: time 14.0 day. The series is classed as functional, organism-based.

Series [5] has as its system Mus musculus. Description: Anti-pulmonary fibrosis activity in bleomycin-induced idiopathic pulmonary fibrosis C57BL/6J mouse model assessed as decrease in lung damage by measuring decrease in collagen deposition in lungs at 25 to 50 mg/kg, ig administered daily via gavage and measured on day 14 by Masson's trichrome staining based analysis. Format: functional, organism-based. The note with it: dose 25-50 mg/kg, time 14.0 day.

The nature of series [6]: Toxicity against silicosis C57BL/6J mouse model assessed as effect on liver morphological changes at 50 mg/kg, ig administered daily via gavage and measured on day 28 by Hematoxylin-Eosin staining based analysis. The note with it: in vivo, po, 672 h, time 28 day. The series is classed as organism-based.
Series [7] concerns RPMI-8226. Nature of the series: Increase in DR5 protein expression in human RPMI-8226 cells incubated for 24 hrs by western blot analysis. To be noted: dose 0.25-1 µM. The series is classed as functional, cell-based.

Chain of Histone deacetylase 2 (Q92769 whole entry): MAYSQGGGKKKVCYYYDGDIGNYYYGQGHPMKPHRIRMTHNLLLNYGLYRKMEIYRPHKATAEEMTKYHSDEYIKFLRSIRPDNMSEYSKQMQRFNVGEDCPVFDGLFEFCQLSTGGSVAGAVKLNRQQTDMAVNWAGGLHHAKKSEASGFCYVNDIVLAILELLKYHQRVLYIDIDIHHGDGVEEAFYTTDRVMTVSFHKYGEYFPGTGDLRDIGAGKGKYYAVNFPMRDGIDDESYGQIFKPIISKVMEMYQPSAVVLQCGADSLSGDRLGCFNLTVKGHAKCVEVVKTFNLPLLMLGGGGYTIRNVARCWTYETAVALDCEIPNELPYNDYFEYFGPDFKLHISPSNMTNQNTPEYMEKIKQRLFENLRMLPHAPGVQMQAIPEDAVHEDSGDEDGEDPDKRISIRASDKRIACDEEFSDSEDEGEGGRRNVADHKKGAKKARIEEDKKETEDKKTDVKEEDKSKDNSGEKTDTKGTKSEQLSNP
Chain of Histone deacetylase 3 (O15379 whole entry): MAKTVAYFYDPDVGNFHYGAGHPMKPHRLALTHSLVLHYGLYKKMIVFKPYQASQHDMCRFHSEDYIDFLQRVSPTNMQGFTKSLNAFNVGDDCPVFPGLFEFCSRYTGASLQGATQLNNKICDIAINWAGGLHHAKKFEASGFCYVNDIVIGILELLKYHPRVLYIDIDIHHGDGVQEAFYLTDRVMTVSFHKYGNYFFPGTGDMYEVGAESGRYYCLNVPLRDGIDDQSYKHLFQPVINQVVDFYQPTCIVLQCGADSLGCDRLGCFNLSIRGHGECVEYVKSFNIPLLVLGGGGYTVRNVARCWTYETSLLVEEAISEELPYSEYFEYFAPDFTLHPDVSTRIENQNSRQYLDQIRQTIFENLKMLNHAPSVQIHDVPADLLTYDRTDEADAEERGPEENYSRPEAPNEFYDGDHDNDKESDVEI

Turning to `O=C(NO)c1ccc(CN2C(=O)C3=C(CCN(Cc4cccc(Cl)c4)C3)N3CCN=C23)cc1`, the inhibition (usually the relative decrease from the control value, in per cent) at Histone deacetylase 3 was 50.8%; in series [4] it was “Active; Levels Lower Than The Positive Control, Acy-1215”. Moreover, the Activity result in the series on Mus musculus [1] is listed as “Active; Superior Activity Compared To Positive Drug, Acy-1215”; in series [2], “Toxic”; in [6] it was “Non-toxic”; with RPMI-8226 [7] it was “Dose-dependent-effect; Higher Activity Compared To Positive Drug, 1 Um Compound Iic, Chidamide, Acy-1215”. In addition, the results for the IC50 in the series with NIH3T3, in the series with RPMI-8226 [3] and at Histone deacetylase 2 were 890 nM, 440 nM and 642 nM, respectively. Besides, the outcome in the series with Mus musculus [5] was Active.

The values are drawn from ChEMBL document CHEMBL6092154, “Design, synthesis, and evaluation of a novel TRAIL-activated HDAC6 inhibitor for the treatment of pulmonary fibrosis” (Bioorg Med Chem, 2024).
